Laboratory results taken from article PMC5430633, “Phosphorylation of the mitochondrial autophagy receptor Nix enhances its interaction with LC3 proteins” (Scientific Reports, 2017).

Key:
EGFP-LC3B K49A = experiment: Co-immunoprecipitation with EGFP-LC3B K49A; type: binding, human; details: Figs S3 and S7; vs wild type LC3B
Experimental: (§1) Cells were scraped, centrifuged at 500 g for 5 min, and lysed in 150 µL CHAPS lysis buffer (2% CHAPS, 1% Triton X-100, 137 mM NaCl, 2 mM EDTA, 10% glycerol, and 20 mM Tris-HCl, pH 8.0) containing protease and phosphatase inhibitors. 5 µL of total lysate was kept as Input sample and 145 µL of cell lysate was incubated with 12.5 µL α-GFP (1:40, Roche)-coupled Dynabeads Protein G (purchased from Invitrogen) for 2 hrs at 4 °C. This step was followed by three washing steps using 0.02% Tween-20/PBS and immunoprecipitated proteins were eluted from Dynabeads by adding 4X LDS buffer (purchased from Invitrogen) and 10X sample reducing agent (purchased from Invitrogen) to the beads. Heating at 70 °C for 10 min will denaturized the proteins to analyze them by Western blotting.

GFP-LC3B K51A = experiment: Co-immunoprecipitation with GFP-LC3B K51A; type: binding, human; details: α-GFP IP, Western blot
Experimental: as §1

GFP-LC3B wild type = experiment: Co-immunoprecipitation with GFP-LC3B wild type; type: binding, human; details: α-GFP IP, Western blot
Experimental: as §1

[1] = test system: HEK293 cells (mitochondrial loss); experiment: Mitochondrial removal by flow cytometry; type: cell-based; details: HEK293, GFP-Nix, 10 μM CCCP 24 hours; vs wild type
Experimental: HEK293 cells were transfected with GFP expression constructs encoding the protein of interest using JetPRIME (Polyplus Transfection). 24 hrs post-transfection cells were treated with 10 µM CCCP for 24 hrs. After treatment, cells were washed with PBS, trypsinized with trypsin for 5 min and resuspended by gentle pipetting. Trypsin-mediated digestion was arrested by the addition of DMEM supplemented with 10% FBS and cells were centrifuged at 500 g for 5 min. To remove cell clumps, cells were resuspended in PBS and filtered through the 70 µm Cell Strainer (BD Falcon). Approximately 10^6 cells were acquired for further flow cytometry analysis. Before fixation, cells were washed twice with FACS buffer (2% FBS, 0,02% NaN3 in PBS) and each time centrifuged at 500 g for 5 min. Cells were fixed with freshly prepared 4% paraformaldehyde for 10 min at room temperature, washed twice with FACS buffer and finally resuspended in […] prior to analysis. […] The acquired data were gated for singlets by generating FSC-A vs FSC-H plot after which dead cells were excluded and the mean fluorescence in FL1 channel was collected. The mean fluorescence of the CCCP and CCCP/Baf treated samples was compared with the untreated control and the results were expressed as a percentage of the retained mitochondria of at least two independent experiments. Results were analyzed using FlowLogic software.

GST-LC3B K49A = experiment: GST pull-down with GST-LC3B K49A; type: binding, human; details: Fig. 3a, vs wild type LC3B
Experimental: (§2) GST fusions of various proteins (pGEX plasmids) were expressed in BL21 E. coli. Fusion protein expression was induced by adding 0.5 mM IPTG for 4 hrs. Bacteria were lysed in 20 mM Tris-HCl, pH 7.5, 10 mM EDTA, pH 8.0, 5 mM EGTA, 150 mM NaCl supplemented with 2 mg/ml lysozyme. GST fusion proteins were subsequently bound to pre-washed Glutathione-Sepharose 4B beads (GE Healthcare). After several washes, fusion protein-bound beads were used directly in binding assays.
(§3) HEK293 or HeLa cells were transfected with expression constructs encoding the protein of interest using JetPRIME (Polyplus Transfection). 24 hrs post-transfection cells were lysed in 50 mM HEPES, pH 7.5, 150 mM NaCl, 1 mM EDTA pH 8.0, 1 mM EGTA, 10% glycerol, 1% Triton X-100, 25 mM NaF, […] and lysates were incubated for 4 hrs with immobilized GST-fusion proteins at 4 °C. Following 5 washes, beads with co-precipitated proteins were resuspended in 2x SDS-PAGE loading buffer, boiled and loaded onto 10% or 12% SDS-PAGE gels for analysis. All GST pull-down experiments were performed in triplicates.

GST-LC3B [2] = experiment: GST pull-down with GST-LC3B wild type; type: binding, human; details: for interaction with GST-LC3B wild type: Flag-Nix in cell lysate, Fig. 3a; for interaction with GST-LC3B: Fig. 1b, triplicates
Experimental: as §2, §3

[3] = test system: HeLa cells expressing GFP-LC3B wild type; experiment: Colocalization / sequestration of mitochondria with GFP-LC3B wild type, fluorescence microscopy; type: cell-based; details: Fig. 4a
Experimental: (§4) HeLa cells were seeded, grown on coverslips or 8-well microscopy slides (ibidi) and transfected with either wild type or mutant Nix or Bnip3 together with wild type or mutant LC3B constructs using JetPRIME transfection reagent according to manufacturer’s instructions. 24 hrs post transfection cells were fixed in 2% or 4% paraformaldehyde and permeabilized with 0,1% Triton X-100 solution. Cells were blocked in 5% BSA/PBS/0.1% Triton X-100 for 1 hr at room temperature or 4 °C overnight. Primary and secondary antibodies were diluted in blocking solution and washed in 0,1% Triton X-100/PBS. Coverslips were mounted in Prolong mounting media (Invitrogen). Cells in 8-well microscopy slides were placed in PBS following staining. Cells were imaged using a Zeiss AxioVision or DeltaVision RT microscope system (Applied Precision). Quantification of Nix-LC3B colocalization was performed as follows: for each Nix construct, LC3B positive dots (signals) were numbered in 100 cells. Only clear and well-defined LC3B signals are taken into consideration, while weak and oversized signals were excluded from the analysis.
HeLa cells were plated in 8-well microscopy µ-slides (ibidi) were transfected GFP-LC3 and RFP-Nix WT, S34,35A or S34,35E. From Z-stacks, single cells were cropped for analysis by ImageJ. Binary masks for each slice within ≥10 representative Z-stacks per condition of (i) Nix-labeled mitochondria and (ii) GFP-LC3 were generated by image segmentation. Slice-by-slice co-localization of mitochondrial and AV masks were calculated using the Boolean AND function. All slices for each binary stack were summed, and the ratio of area calculated from mitochondrialy-localized AV over total mitochondria content is reported as a cellular fraction.

[4] = test system: HeLa cells (recruitment of LC3B to mitochondria); experiment: LC3B positive vesicles per 100 cells, immunofluorescence microscopy; type: cell-based; details: 10 µM CCCP for 2 hours, vs wild type and S34,35A, three independent experiments, Fig. 3b
Experimental: as §4

[5] = test system: cells expressing LC3B K49A; experiment: Colocalization with LC3B K49A, fluorescence microscopy; type: cell-based; details: vs wild type LC3B
Experimental: as §4

[6] = test system: HeLa cells expressing GFP-LC3B K51A; experiment: Colocalization with GFP-LC3B K51A, fluorescence microscopy; type: cell-based; details: Fig. 4d,e
Experimental: as §4, with “Only clear and well-defined LC3B signals are taken into consideration, while weak and oversized signals were excluded from the analysis.” left out
HeLa cells were plated in 8-well microscopy µ-slides (ibidi) were transfected GFP-LC3 and RFP-Nix WT, S34,35A or S34,35E. […] Slice-by-slice co-localization of mitochondrial and AV masks were calculated using the Boolean AND function. All slices for each binary stack were summed, and the ratio of area calculated from mitochondrialy-localized AV over total mitochondria content is reported as a cellular fraction.

GST-LC3A = experiment: GST pull-down with GST-LC3A; type: binding, human; details: Fig. 1b, triplicates
Experimental: as §2, §3

GST-LC3B [7] = details: ref [17]; cited from earlier work
Experimental: Recently, it was determined that phosphorylation of serine residues juxtaposed to the LIR motif is responsible for the activation of receptor functions for Optn and Bnip3[5],[14]. […] Therefore, we mutated Ser34 and Ser35 in Nix to alanine, glutamic acid or aspartic acid re ...

EGFP-LC3B R11A = experiment: Co-immunoprecipitation with EGFP-LC3B R11A; type: binding, human; details: α-GFP IP, 24 hrs post transfection, Fig. S5a
Experimental: as §1

EGFP-LC3B R10A = experiment: Co-immunoprecipitation with EGFP-LC3B R10A; type: binding, human; details: α-GFP IP, 24 hrs post transfection, Fig. S5a
Experimental: as §1

LC3B K49A = molecular target: T1, LC3B K49A (Homo sapiens, UniProt Q9GZQ8, K49A); experiment: ITC, LC3B K49A mutant; type: binding
T1 construct: Ub3 (ubiquitin fusion) (N); made in house
Experimental: (§5) Before the experiment, the proteins and peptides were equilibrated with a buffer containing 40 mM Na2HPO4, 80 mM NaCl at pH 7.0, and supplied with 5 mM protease inhibitors cocktail.
(§6) All titration experiments were performed at 25 °C using a VP-ITC microcalorimeter (MicroCal Inc., MA, USA). The ITC-data were analyzed with the ITC-Origin 7.0 software with a “one-site” binding model. The peptides at concentrations of 0.31 mM were titrated into 0.018 mM LC3B proteins in 25 steps. The proteins and peptides concentrations were calculated from the UV-absorption at 280 nm by Nanodrop spectrophotometer (Thermo Fisher Scientific, DE, USA).

LC3B wild type = molecular target: T2, LC3B wild type (Homo sapiens, UniProt Q9GZQ8); experiment: Isothermal titration calorimetry (ITC), LC3B wild type; type: binding
T2 construct: Ub3 (ubiquitin fusion) (N); made in house
Experimental: as §5, §6

## Bnip3 wild type: mitophagy receptor Bnip3, homolog of Nix [reference compound]
EGFP-LC3B K49A
  affinity to LC3B K49A (in words): increased affinity
GFP-LC3B K51A
  co-immunoprecipitation with GFP-LC3B K51A: does not

## Bnip3S17,24E: Bnip3 S17,24E mutant [reference compound]
GFP-LC3B wild type
  co-immunoprecipitation with GFP-LC3B wild type: strongly bound
GFP-LC3B K51A
  co-immunoprecipitation with GFP-LC3B K51A: absent

## Nix S34,35A: Nix with serine-to-alanine mutations to disable phosphorylation
GFP-LC3B wild type
  co-immunoprecipitation with GFP-LC3B wild type: no interaction
[1]
  mitochondrial loss (fraction of removed mitochondria), in words: slightly reduced compared to wild type
GST-LC3B K49A
  interaction with GST-LC3B K49A: strongly increased binding
GST-LC3B [2]
  interaction with GST-LC3B wild type: did not interact
[3]
  targeting of mitochondria to LC3B autophagosomes / colocalization with GFP-LC3B: lack of such a recruitment
[3]; listed as RFP-Nix S34,35A
  targeting of mitochondria to LC3B autophagosomes / colocalization with GFP-LC3B: does not colocalize

## Nix S34,35D: phosphomimetic Nix double mutant
[4]
  recruitment of LC3B-positive vesicles: increased recruitment of LC3B-positive vesicles compared to wild type and S34,35A

## Nix S34,35E: phosphomimetic Nix double mutant
[4]
  recruitment of LC3B-positive vesicles: increased recruitment of LC3B-positive vesicles compared to wild type and S34,35A
[5]
  colocalization with LC3B K49A: increased
[6]
  colocalization with GFP-LC3B K51A: loss of cellular colocalization
GFP-LC3B wild type
  co-immunoprecipitation with GFP-LC3B wild type: strong interaction
[1]
  mitochondrial loss (fraction of removed mitochondria), in words: more rapid
GST-LC3B [2]
  interaction with GST-LC3B wild type: robustly bound
[3]
  targeting of mitochondria to LC3B autophagosomes / colocalization with GFP-LC3B: enhanced targeting of mitochondria to LC3B autophagosomes relative to wild type Nix
[3]; listed as S34,35E
  targeting of mitochondria to LC3B autophagosomes / colocalization with GFP-LC3B: enhanced colocalization
GFP-LC3B K51A
  co-immunoprecipitation with GFP-LC3B K51A: unable to immunoprecipitate

## Nix S34E: single phosphomimetic Nix mutant
GST-LC3A
  interaction with GST-LC3A: stronger than wild type Nix but weaker than the double serine phosphomimetic S34,35D Nix mutant
GST-LC3B [2]
  interaction with GST-LC3B: stronger than wild type Nix but weaker than the double serine phosphomimetic S34,35D Nix mutant

## Nix S35E: single phosphomimetic Nix mutant
GST-LC3A
  interaction with GST-LC3A: stronger than wild type Nix but weaker than the double serine phosphomimetic S34,35D Nix mutant
GST-LC3B [2]
  interaction with GST-LC3B: stronger than wild type Nix but weaker than the double serine phosphomimetic S34,35D Nix mutant

## Nix wild type: mitophagy receptor Nix, wild type, expressed in cells
[6]
  colocalization with GFP-LC3B K51A: does not colocalize
GST-LC3B [7]
  interaction rank of LC3B among Nix partners: weakest
GFP-LC3B wild type
  co-immunoprecipitation with GFP-LC3B wild type: no interaction
GST-LC3B K49A; listed as Nix
  interaction with GST-LC3B K49A: increased affinity
GST-LC3B K49A; listed as wild type Nix
  interaction with GST-LC3B K49A: strongly increased binding
EGFP-LC3B R11A
  co-immunoprecipitation with LC3B R11A: do not coimmunoprecipitate
GST-LC3B [2]
  interaction with GST-LC3B: considerably weaker than with LC3A
[3]
  targeting of mitochondria to LC3B autophagosomes / colocalization with GFP-LC3B: shows colocalization
EGFP-LC3B R10A
  co-immunoprecipitation with LC3B R10A: do not coimmunoprecipitate
GFP-LC3B K51A
  co-immunoprecipitation with GFP-LC3B K51A: fails to coimmunoprecipitate

## SQQGGWGTVFSLESEE [arbitrary LIR-similar peptide, residues 196–210 of the human protein BCL2L13 - analog of the yeast Atg32 protein]
LC3B K49A
  affinity to LC3B K49A (in words): weak
LC3B wild type
  affinity to wild type LC3B (in words): weak
